Source: article PMC12935919 (Frontiers in Pharmacology, 2026)
No end group written: not given here.

What was measured:
[1] = test system: patients with muscle atrophy (ICD-10-CM code: M62.5); assay: Clinical trial: 6-m walk test; type: in vivo, human
Experimental: (§1) The study was conducted at Biosite Research Private Limited (Shanthipura, India) under the New Drugs and Clinical Trials Rules (2019) issued by CDSCO (Ministry of Health and Family Welfare, Government of India), and in compliance with GCP, applicable local regulatory requirements, the Declaration of Helsinki ([…]), ICMR guidelines (2017), and ICH-GCP E6 (R2). Ethical approval was obtained from the Excel Hospital Institutional Ethics Committee (ECR/1670/Inst/TG/2022) and ethics committees of other participating centers, and the trial was prospectively registered (CTRI/2024/01/061919). All participants provided written informed consent prior to any study procedures. […] Efficacy endpoints were evaluated as changes from baseline to Week 12; efficacy analyses were conducted in the per-protocol population, and safety analyses included all randomized participants who received at least one dose of study product (Supplementary Figure S2). […] Continuous variables were summarized as N, mean (SD), median, minimum, and maximum, and categorical variables as n (%), with percentages calculated as n/N × 100. Changes from baseline to Week 12 in DEXA-assessed muscle mass, 6-m walk test, and handgrip strength were analyzed using ANCOVA, adjusting for the corresponding baseline value. […]

[2] = test system: patients with muscle atrophy (ICD-10-CM code: M62.5); assay: Clinical trial: serum biomarkers; type: in vivo, human
Experimental: The study was conducted at Biosite Research Private Limited (Shanthipura, India) under the New Drugs and Clinical Trials Rules (2019) issued by CDSCO (Ministry of Health and Family Welfare, Government of India), and in compliance with GCP, applicable local regulatory requirements, the Declaration of Helsinki ([…]), ICMR guidelines (2017), and ICH-GCP E6 (R2). Ethical approval was obtained from the Excel Hospital Institutional Ethics Committee (ECR/1670/Inst/TG/2022) and ethics committees of other participating centers, and the trial was prospectively registered (CTRI/2024/01/061919). All participants provided written informed consent prior to any study procedures. Key eligibility criteria included adults aged ≥18 years with low muscle mass by DEXA (men: <7.0 kg/m^2; women: <5.4 kg/m^2) and either low handgrip strength (men: <28 kg; women: <18 kg) or low physical performance (6-m walk speed <1.0 m/s). Major exclusion criteria included uncontrolled systemic disease, musculoskeletal or neurological disorders, recent anabolic steroid use, and concomitant medications known to affect protein metabolism; full inclusion and exclusion criteria are provided in Supplementary Table S1. Of 89 patients screened, seven were screen failures and two withdrew prior to randomization; 80 eligible participants were enrolled and proceeded to the baseline/randomization visit (mean age 38.83 ± 9.91 years; range 23-69). […] The study was double-blind; participants, investigators, and study staff were unaware of treatment allocation throughout the trial. […] Efficacy endpoints were evaluated as changes from baseline to Week 12; efficacy analyses were conducted in the per-protocol population, and safety analyses included all randomized participants who received at least one dose of study product (Supplementary Figure S2). Of 80 randomized participants, 75 completed the study. Statistical analyses were performed using SAS (version 9.4; SAS Institute Inc., Cary, NC, USA). Continuous variables were summarized as N, mean (SD), median, minimum, and maximum, and categorical variables as n (%), with percentages calculated as n/N × 100. Changes from baseline to Week 12 in DEXA-assessed muscle mass, 6-m walk test, and handgrip strength were analyzed using ANCOVA, adjusting for the corresponding baseline value. Least-squares means (LSMs), 95% confidence intervals, and two-sided p-values were reported, with p < 0.05 considered statistically significant.

SAMP8 mice [3] = assay: H&E myofiber area in muscle; type: in vivo, mouse; conditions: oral gavage once daily 45 weeks, 20 mg Myoki in 200 µL PBS, n = 5, vs SAMP8 group
Experimental: (§2) Eight week old male senescence-accelerated mouse-prone 8 (SAMP8)/Ta Slc and senescence-accelerated mouse-resistant 1 (SAMR1)/Ta Slc mice (weighing 30 ± 2 g) were purchased from Central Lab Animal Inc. (Seoul, Korea) and housed at 24 °C in cages under a 12/12 h light/dark cycle with ad libitum access to food and water. […] Mice in all groups were dosed once daily by oral gavage for 45 weeks. […] This study was approved by the Institutional Animal Care and Use Committee (approval number CG-R22-001).
Quadriceps (Quad) and gastrocnemius (Gas) muscle tissues were harvested and immersion-fixed in 10% neutral buffered formalin at 4 °C for 24 h. Following fixation, the tissues were dehydrated through a graded series of ethanol, cleared in xylene, and embedded in paraffin. Paraffin-embedded tissues were sectioned at a thickness of 5 μm. The tissue sections mounted on slides were deparaffinized, washed, and stained with hematoxylin (Dako, S3309) and eosin (Thermo Fisher Scientific, #6766007) (H&E). To assess the degree of muscle fibrosis, they were also stained using a Sirius Red Stain Kit (Abcam, ab150681) according to the manufacturer’s instructions. […] For each animal, three images were randomly selected from the stained sections, and the total stained area per image, rather than individual muscle fibers, was quantified using ImageJ software.

SAMP8 mice [4] = assay: Immunofluorescence in skeletal muscle tissues; type: in vivo, mouse; conditions: oral gavage 45 weeks, 20 mg in 200 µL PBS
Experimental: as §2
Muscle tissues fixed in formalin were sectioned into 5-μm paraffin section. They were treated with heat-mediated antigen retrieval in TRS buffer TRS buffer (pH 6.2) and peroxide-blocked using reagent (Epredia, TA-125-PBQ). Primary antibodies—anti-myostatin (Abcam, ab124721), anti-atrogin-1/MAFbx (Santa Cruz, sc-166806), and anti-fast MyHC (Abcam, ab91506)—were diluted 1:250 or 1:500 in anti-body diluent (GBI Labs, E09-300) and incubated overnight at 4 °C. […] Nuclei were stained with 4′,6-diamidino-2-phenylindole (DAPI; blue) for 20 min, mounted using Aqua Mounting Media (Biomeda), and imaged at 200× with a confocal fluorescence microscope (LEICA, Wetzlar, Germany). Fluorescence intensities were quantified using ImageJ software, and results were statistically analyzed.

[5] = test system: patients with muscle atrophy (ICD-10-CM code: M62.5); assay: Clinical trial: muscle mass by DEXA; type: in vivo, human
Experimental: as §1

[6] = Week 12, 200 mg/day, ANCOVA, p <0.01

EAEYEHL-OH [Myoki]
Time to complete 6-meter walk test (TTC-6mWT), change from baseline to Week 12 (LS mean) ([1]; 200 mg peptide/day oral, N = 38, 95% CI (−1.36 to −0.87), placebo −0.77): -1.12 s
Time to complete 6-meter walk test, difference between placebo and treatment (95% CI) [1, 6]: -0.34 s
IGF-1, change from baseline to Week 12 (LS mean) ([2]; 200 mg peptide/day oral, N = 38, 95% CI (19.49 to 43.40), placebo 13.51): 31.44 ng/mL
TNF-alpha, change from baseline to Week 12 (LS mean) ([2]; 200 mg peptide/day oral, N = 38, 95% CI (−1.54 to 9.48), placebo 4.3): 3.97 pg/mL
Creatine kinase (CK-MB), change from baseline to Week 12 (LS mean) ([2]; 200 mg peptide/day oral, N = 38, 95% CI (−2.13 to 1.04), placebo 3.41): -0.54 ng/mL
IL-6, change from baseline to Week 12 (LS mean) ([2]; 200 mg peptide/day oral, N = 38, 95% CI (−2.59 to 2.67), placebo 1.31): 0.04 pg/mL
Aspartate aminotransferase, change from baseline to Week 12 (LS mean) ([2]; 200 mg peptide/day oral, N = 38, 95% CI (−6.14 to 0.49), placebo 2.57): −2.83 IU/L
Sex hormones (Estrogen), change from baseline to Week 12 (LS mean) ([2]; 200 mg peptide/day oral, N = 38, 95% CI (−8.11 to 3.36), placebo −1.98): -2.37 pg/mL
Myoglobin, change from baseline to Week 12 (LS mean) ([2]; 200 mg peptide/day oral, N = 38, 95% CI (−10.33 to −2.56), placebo 8.15): -6.45 ng/mL
Sex hormones (testosterone), change from baseline to Week 12 (LS mean) ([2]; 200 mg peptide/day oral, N = 38, 95% CI (−21.09 to 114.17), placebo −29.9): 46.54 pg/mL
Aspartate aminotransferase, difference between placebo and treatment (95% CI) ([2]; Week 12, 200 mg/day, p 0.025): −5.39 IU/L
IGF-1, difference between placebo and treatment (95% CI) ([2]; Week 12, 200 mg/day, p 0.038): 17.93 ng/mL
Creatine kinase (CK-MB), difference between placebo and treatment (95% CI) ([2]; Week 12, 200 mg/day, p <0.01): -3.95 ng/mL
Myoglobin, difference between placebo and treatment (95% CI) ([2]; Week 12, 200 mg/day, p <0.01): -14.6 ng/mL
myofiber area, gastrocnemius (SAMP8 mice [3]): significantly increased
myofiber area, quadriceps (SAMP8 mice [3]): significantly increased
fast-MyHC fluorescence intensity (SAMP8 mice [4]; n = 5): restored toward SAMR1 levels
atrogin-1/MAFbx fluorescence intensity, gastrocnemius (SAMP8 mice [4]; n = 5, vs SAMP8 group): significantly decreased
Lean muscle mass, change from baseline to Week 12 (LS mean) ([5]; Myoki + arginine + maltodextrin, 200 mg peptide/day oral, N = 38, 95% CI (736.90 to 1124.7), placebo 225): 930.8 g
Lean muscle mass, difference between placebo and treatment (95% CI) [5, 6]: 705.8 g
